# Laboratory results reported in US10604489B2, “Compounds for the treatment of pain” (priority 2018, dated 2020).
# Where a name gives a salt, the structure may show the parent alone.
# Key:
# Male Sprague-Dawley rats = assay: animal or person; format: in vivo, rat; settings: rat; for minimal effective dose: sc, minimum dose at which maximal reversal of hind paw weight bearing (50±0.5%) was achieved, subcutaneous administration, read-out: MEMD SC CFA
# μ-receptor = μ-receptor (Homo sapiens (Human), UniProt P35372); assay: Receptor binding, competitive displacement of [3H]DAMGO; settings: 0.25 nM [3H]DAMGO, CHO cell membrane protein, 60 min at 25° C.
# Procedure, shortened: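 Membranes from CHO cells stably expressing cloned human μ-opioid receptor incubated 60 min at 25 °C with 12 compound concentrations and 0.25 nM [3H]DAMGO in 50 mM Tris-HCl pH 7.5; nonspecific binding with 10 μM naloxone. Filtration and scintillation counting; Ki from IC50 by Cheng-Prusoff.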
# human μ opioid receptor [1] = target: T1, human μ opioid receptor (Homo sapiens (Human), UniProt P35372); assay: Functional activity ([35S]GTPγS binding); format: biochemical; settings: [35S]GTPγS 0.080 nM, CHO cell membranes, 60 min at 30° C., filtration
# Procedure, shortened: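 Membranes from stably transfected CHO cells (7.5 μg) incubated with 12 test-compound concentrations and 0.080 nM [35S]GTPγS in 50 mM Tris-HCl pH 7.4, 3 mM MgCl2, 0.2 mM EGTA, 3 μM GDP, 100 mM NaCl, 60 min at 30° C. Nonspecific binding defined with 10 μM GTPγS; bound label collected by filtration and scintillation counting.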
# human μ opioid receptor [2] = target: T1, human μ opioid receptor; assay: Alternate functional activity ([35S]GTPγS binding) assay, SPA beads; format: biochemical; settings: alternate assay: [35S]GTPγS 0.020 nM, CHO cell membranes with WGA PVT SPA beads
# Protocol: The [^35S]GTPγS assay measures the functional properties of a compound by quantifying the level of G-protein activation following agonist binding in studies using stably transfected cells, and is considered to be a measure of the efficacy of a compound. Membranes from CHO (Chinese Hamster Ovary) cells that stably expressed one type of the cloned human opioid receptor human were used in the experiments. The assay buffer consisted of 50 mM Tris-HCl, pH 7.4, 3 mM MgCl2, 0.2 mM EGTA, 5 μM GDP, and 100 mM NaCl. CHO cell membranes stably expressing the human p opioid receptor were pre-incubated with scintillation proximity assay beads from PerkinElmer® (WGA PVT SPA) for 30 minutes, at 8 µg membrane and […] beads in a volume of 0.1 mL per reaction. In a final volume of 0.2 mL, 11 different concentrations of each test compound were incubated with the membrane-SPA bead mixture and a final concentration of 0.020 nM [35S]GTPγS for 1.5 hours with gentle shaking. Reactions were then incubated for 5 hours. Data are the mean EC50 values ±S.E.M. EC50 values (nM) for compounds 12, 16, 19, 20, 149, 151, 152, 157, 160, 161, 164-169, 172, 173, 180-197, and 199-207 are shown in Table 1.
SMILES,Ki (μ-receptor),EC50 (human μ opioid receptor [1]),EC50 (human μ opioid receptor [2]),further results
"COC1(c2ccnc(C(N)=O)c2)C2CCCC1CN(C[C@H]1CCCO1)C2.Cl (single isomer, unassigned) [Compound 136]",,,,minimal effective dose (Male Sprague-Dawley rats): 0.3 mg/kg
"COC1(c2cccc(C(N)=O)c2)C2CCCC1CN(C[C@@H]1CCOC1)C2.Cl (single isomer, unassigned) [Compound 143]",,,,minimal effective dose (Male Sprague-Dawley rats): 1 mg/kg
"CO[C@@]12CC[C@@]3(C[C@@H]1[C@](C)(O)C(C)(C)C)[C@H]1Cc4ccc(O)c5c4[C@@]3(CCN1CC1CC1)[C@H]2O5 [Buprenorphine, reference compound]",,,,MEMD SC CFA (Male Sprague-Dawley rats; in vivo): 0.1 mg/kg
"CCCC(C)N1CC2CCCC(C1)C2(OC)c1ccnc(C(N)=O)c1 [Compound 118, 4-((1R,5S,9r)-9-methoxy-3-(pentan-2-yl)-3-azabicyclo[3.3.1]nonan-9-yl)picolinamide hydrochloride]",1 to 5 nM,10 to 75 nM,,
"COC1(c2ccnc(C(N)=O)c2)C2CCCC1CN(Cc1cncn1C)C2 [Compound 121, 4-((1R,5S,9r)-9-methoxy-3-((1-methyl-1H-imidazol-5-yl)methyl)-3-azabicyclo[3.3.1]nonan-9-yl)picolinamide hydrochloride]",1 to 5 nM,> 75 nM,,
"COC1(c2ccnc(C(N)=O)c2)C2CCCC1CN(Cc1ccno1)C2 [Compound 124, 4-((1R,5S,9r)-3-(isoxazol-5-ylmethyl)-9-methoxy-3-azabicyclo[3.3.1]nonan-9-yl)picolinamide hydrochloride]",> 5 nM,> 75 nM,,
"COC1(c2cccc(C(N)=O)c2)C2CCCC1CN(C1CC3(CCC3)C1)C2 [Compound 129, 3-((1R,5S,9r)-9-methoxy-3-(spiro[3.3]heptan-2-yl)-3-azabicyclo[3.3.1]nonan-9-yl)benzamide hydrochloride]",< 1 nM,< 10 nM,,
"COC1(c2ccnc(C(N)=O)c2)C2CCCC1CN([C@H]1C[C@@H](C)C1)C2 (stereo partly drawn) [Compound 130, 4-((1R,5S,9R)-9-methoxy-3-((1s,3S)-3-methylcyclobutyl)-3-azabicyclo[3.3.1]nonan-9-yl)picolinamide hydrochloride]",< 1 nM,10 to 75 nM,,
"COC1(c2ccnc(C(N)=O)c2)C2CCCC1CN([C@H]1C[C@H](C)C1)C2 (stereo partly drawn) [Compound 131, 4-((1R,5S,9R)-9-methoxy-3-((1r,3R)-3-methylcyclobutyl)-3-azabicyclo[3.3.1]nonan-9-yl)picolinamide hydrochloride]",1 to 5 nM,10 to 75 nM,,
"COC1(c2ccnc(C(N)=O)c2)C2CCCC1CN([C@H]1CCCOC1)C2 (stereo partly drawn) [Compound 132, 4-((1R,5S,9s)-9-methoxy-3-((S)-tetrahydro-2H-pyran-3-yl)-3-azabicyclo[3.3.1]nonan-9-yl)picolinamide hydrochloride]",1 to 5 nM,> 75 nM,,
"COC1(c2ccnc(C(N)=O)c2)C2CCCC1CN([C@H]1C[C@@H](OC)C1)C2 (stereo partly drawn) [Compound 139, 4-((1R,5S,9R)-9-methoxy-3-((1r,3R)-3-methoxycyclobutyl)-3-azabicyclo[3.3.1]nonan-9-yl)picolinamide hydrochloride]",< 1 nM,10 to 75 nM,,
"COC1(c2ccnc(C(N)=O)c2)C2CCCC1CN(Cc1n[nH]c3ccccc13)C2 [Compound 142, 4-((1R,5S,9r)-3-((1H-indazol-3-yl)methyl)-9-methoxy-3-azabicyclo[3.3.1]nonan-9-yl)picolinamide hydrochloride]",< 1 nM,< 10 nM,,
"COC1(c2cccc(C(N)=O)c2)C2CCCC1CN(CCS(C)(=O)=O)C2 [Compound 150, 3-((1R,5S,9r)-9-methoxy-3-(2-(methylsulfonyl)ethyl)-3-azabicyclo[3.3.1]nonan-9-yl)benzamide hydrochloride]",1 to 5 nM,> 75 nM,,
"COC1(c2cccc(C(N)=O)c2)C2CCCC1CN(Cc1n[nH]c3ccccc13)C2 [Compound 154, 3-((1R,5S,9r)-3-((1H-indazol-3-yl)methyl)-9-methoxy-3-azabicyclo[3.3.1]nonan-9-yl)benzamide hydrochloride]",< 1 nM,< 10 nM,,
"COC1(c2cccc(C(N)=O)c2)C2CCCC1CN(C[C@@H]1C[C@@H]3C[C@@H]3C1)C2 (stereo partly drawn) [Compound 156, 3-((1R,5S,9R)-3-((1R,3r,5S)-bicyclo[3.1.0]hexan-3-ylmethyl)-9-methoxy-3-azabicyclo[3.3.1]nonan-9-yl)benzamide hydrochloride]",< 1 nM,< 10 nM,,
COC1(c2cccc(C(N)=O)c2)C2CCCC1CN(CCC(F)F)C2 (stereo not drawn) [Compound 159],< 1 nM,< 10 nM,,
COC1(c2ccnc(C(N)=O)c2)C2CCCC1CN(C[C@H]1C[C@H]3CC[C@@H](C1)O3)C2 (stereo partly drawn) [Compound 164],,,10 to 75 nM,
COC1(c2ccnc(C(N)=O)c2)C2CCCC1CN(C[C@@H]1C[C@H]3CC[C@@H](C1)O3)C2 (stereo partly drawn) [Compound 165],,,10 to 75 nM,
COC1(c2cccc(C(N)=O)c2)C2CCCC1CN(C[C@H]1C[C@H]3CC[C@@H](C1)O3)C2 (stereo partly drawn) [Compound 166],,,< 10 nM,
COC1(c2cccc(C(N)=O)c2)C2CCCC1CN(C[C@@H]1C[C@H]3CC[C@@H](C1)O3)C2 (stereo partly drawn) [Compound 167],,,< 10 nM,

SMILES,Ki (μ-receptor),EC50 (human μ opioid receptor [1]),EC50 (human μ opioid receptor [2]),further results
COC1(c2ccnc(C(N)=O)c2)C2CCCC1CN(C[C@H]1CCCCO1)C2 (stereo partly drawn) [Compound 168],,,10 to 75 nM,
COC1(c2ccnc(C(N)=O)c2)C2CCCC1CN(C[C@@H]1CCCCO1)C2 (stereo partly drawn) [Compound 169],,,10 to 75 nM,
COC1(c2cc(C(N)=O)ccc2C)C2CCCC1CN(C)C2 (stereo not drawn) [Compound 172],,,> 75 nM,
COC1(c2cc(C(N)=O)ccc2F)C2CCCC1CN(C)C2 (stereo not drawn) [Compound 173],,,10 to 75 nM,
COC1(c2cccc(C(N)=O)c2)C2CCCC1CN(C[C@@H]1[C@@H]3COC[C@@H]31)C2 (stereo partly drawn) [Compound 175],< 1 nM,10 to 75 nM,,
COC1(c2cc(F)cc(C(N)=O)c2)C2CCCC1CNC2 (stereo not drawn) [Compound 181],,,10 to 75 nM,
NC(=O)c1cccc(C2(OCC(F)(F)F)C3CCCC2CNC3)c1 (stereo not drawn) [Compound 184],,,10 to 75 nM,
CCOC1(c2cc(Cl)cc(C(N)=O)c2)C2CCCC1CNC2 (stereo not drawn) [Compound 185],,,> 75 nM,
CCOC1(c2cc(C(N)=O)ccc2F)C2CCCC1CNC2 (stereo not drawn) [Compound 186],,,10 to 75 nM,
COC1(c2cccc(C(N)=O)c2)C2CCCC1CN([C@H](C)c1n[nH]c3cnccc13)C2 (stereo partly drawn) [Compound 189],,,10 to 75 nM,
COC1(c2cccc(C(N)=O)c2)C2CCCC1CN([C@@H](C)c1n[nH]c3cnccc13)C2 (stereo partly drawn) [Compound 190],,,< 10 nM,
COC1(c2cccc(C(N)=O)c2)C2CCCC1CN(Cc1n[nH]c3cnccc13)C2 (stereo not drawn) [Compound 191],,,10 to 75 nM,
CCOC1(c2cc(F)cc(C(N)=O)c2)C2CCCC1CNC2 (stereo not drawn) [Compound 192],,,10 to 75 nM,
CCOC1(c2cc(C)cc(C(N)=O)c2)C2CCCC1CNC2 (stereo not drawn) [Compound 193],,,> 75 nM,
COC1(c2cc(C(N)=O)ccc2F)C2CCCC1CN(C)C2 (stereo not drawn) [Compound 194],,,10 to 75 nM,
COC1(c2ccnc(C(N)=O)c2)C2CCCC1CN(C1(C)CCC1)C2 (stereo not drawn) [Compound 201],,,10 to 75 nM,
COC1(c2ccnc(C(N)=O)c2)C2CCCC1CN(C1CC3CCC(C1)O3)C2 (stereo not drawn) [Compound 204],,,10 to 75 nM,
COC1(c2cccc(C(N)=O)c2)C2CCCC1CN(C1CC3CCC(C1)O3)C2 (stereo not drawn) [Compound 205],,,< 10 nM,
COC1(c2ccnc(C(N)=O)c2)C2CCCC1CN([C@H](C)c1cnn[nH]1)C2 (stereo partly drawn) [Compound 206],,,> 75 nM,
CCOC1(c2cccc(C(N)=O)c2O)C2CCCC1CNC2 (stereo not drawn) [Compound 207],,,> 75 nM,
